For 94 compounds, EC50 results are on record in PubChem BioAssay AID1902 (Broad Institute, 2009).

Several values for one entry are separate records, joined by “and”; a condition that tells them apart may be missing. Equal entries are not always repeated. Activity calls are given as the source filed them.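 How the source made its calls: active means EC50 no more than a set limit of log units above the highest dose; inactive means the rest.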

By EC50 is commonly meant the concentration that produces a half-maximal response.

This test addresses S. pyogenes SKKanGAS, kanamycin survival, BacTiterGlo, 6 h. In words: SKKanGAS survival reduction under kanamycin, dose response, streptokinase promoter inhibitor project, SKKanGAS strain, luminescence, dose confirmation (AID 1902).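 Further: lower survival reflects blocked streptokinase promoter driving kanamycin resistance gene.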
In the case of `Oc1ccc(Br)cc1/C=N/Nc1ncc(-c2ccccc2)cn1`, the EC50 is 1.7 µM.

As for `O=C1NC(=O)/C(=C/c2ccccc2Oc2ccc(Cl)cc2)S1`, the EC50 was 6.33 µM.

In the case of `COc1ccc(/C=C/c2ccc3cccc(O)c3n2)c(OC)c1OC`, the EC50 is 3.27 µM.

Consider `COc1ccc(S(=O)(=O)N2CCOC2CNC(=O)C(=O)NCc2ccccc2Cl)cc1` (centres undefined), for which the EC50 is > 15 µM (inactive).

As for `O=C(Nc1nnc(C2=COCCO2)o1)c1ccc(Br)cc1`, the EC50 is 0.78 µM.

As to `O=S(=O)(Nc1cccc2cccnc12)c1ccccc1`, the EC50 is 4.39 µM.

For `CC(Oc1ccc(Br)cc1)C(=O)Nc1nc(-c2ccccn2)cs1` (centres undefined), the EC50 was under 0.06 µM.

As for `C=CCn1c(NC(=O)c2ccc(C)cc2)nc2ccccc21`, the EC50 was 9.75 µM.

For the compound `CCOC(=O)c1c(-c2ccc(OC)cc2)csc1/N=C/C1=C(O)CCCC1=O`, the EC50 is 14.5 µM.

On to `O=C(/C=C/c1cccc(Cl)c1)c1ccc([N+](=O)[O-])o1`, for which the EC50 was 2.23 µM.

Turning to `CCCCCCCCCCCCC(NC(C)=O)(C(=O)OCC)C(=O)OCC`, the EC50 was 6.05 µM.

Regarding `O=C(O)CSc1nnc(Cn2c(=O)sc3ccccc32)n1-c1cccc(Cl)c1`, the EC50 is > 15 µM (inactive).

For `O=C(CSC(=S)N1CCOCC1)c1cc(Br)cc(Br)c1O`, the EC50 is > 15 µM (inactive).

On to `CCOC(=O)c1c(NC(=O)c2cccs2)sc2c1CCN(C(=O)OCC)C2`, for which the EC50 was 13 µM.

On to `CCSc1nnc(NC(=O)c2ccc3ccccc3n2)s1`, for which the EC50 is 2.53 µM.

Consider `Cc1oc(-c2ccccc2Cl)nc1Cn1cccc1C1=NC(c2ccccc2)CO1` (centres undefined), for which the EC50 is > 15 µM (inactive).

`CN(C)c1ccnc2c[cH-]cc12.[Fe].c1ccc(-[c-]2[c-](-c3ccccc3)[c-](-c3ccccc3)[c-](-c3ccccc3)[c-]2-c2ccccc2)cc1` (centres undefined): the EC50 was 1.96 µM and 0.56 µM.

Take `COc1ccc2c(c1)C(=NNc1ccc(C(=O)O)cc1)c1cc(OC)ccc1-2`: the EC50 is 4.68 µM.

As for `CCc1ccc(/C=C2\SC(=S)N(CCCC(=O)Nc3ccc(C(=O)O)cc3)C2=O)cc1`, the EC50 was 7.83 µM.

Turning to `O=[N+]([O-])c1cc(Cl)cc(/C=N/Nc2nc3ccccc3s2)c1O`, the EC50 is 1.54 µM.

Turning to `COCCn1c(-c2cc(OC)c(OC)c(OC)c2)nc2oc3cc(OC)ccc3c(=O)c2c1=O`, the EC50 is > 15 µM (inactive).

As for `Cc1ccccc1N=Nc1ccc(O)c2ncccc12`, the EC50 was 0.069 µM.

`Cc1cccc(NC(=O)c2sc(Cl)nc2-c2ccccc2)c1`: the EC50 was 11.2 µM.

As for `CCC1(C)Cc2ccccc2-c2nc(-c3ccccc3)oc(=O)c21` (centres undefined), the EC50 is 5.51 µM.

As to `CCOC(=O)C1=C(N)c2ccccc2CC1C1CCCC1` (centres undefined), the EC50 was 3.26 µM.

Consider `Cc1ccc(SCC(=O)N2c3ccccc3Sc3ccccc32)cc1`, for which the EC50 is 3.78 µM.

`Cc1ccc(N=Nc2ccc(O)c(P(=O)(c3ccccc3)c3ccccc3)c2)cc1`: the EC50 was 3.36 µM.

With `CCCCCCc1cc2cc(C(=O)OCC)c(=O)oc2cc1O`, the EC50 is 5.46 µM.

As to `Nc1c(C(=O)Nc2nc3ccccc3s2)sc2nc(-c3cccs3)ccc12`, the EC50 was 6.67 µM.

On to `CC(C(=O)NC1C(=O)N2C(C(=O)O)=C(CSc3nnnn3C)CSC12)n1cc(Br)cn1` (centres undefined), for which the EC50 is under 0.06 µM.

In the case of `CCc1cccc2sc(N3CCN(C(=O)c4ccc([N+](=O)[O-])o4)CC3)nc12`, the EC50 was 4.73 µM.

Consider `CC(C)CN(Cc1cc(=O)oc2cc(-c3ccccc3)c(O)cc12)CC(C)C`, for which the EC50 is 3.88 µM.

With `O=C(CCl)c1ccc(Cc2ncc(C(F)(F)F)cc2Cl)s1`, the EC50 is 3.69 µM.

With `COc1ccc(Cl)cc1C(=O)NNC(=S)NC(=O)c1cc(-c2ccccc2)nc2ccccc12`, the EC50 is 0.081 µM.

For the compound `O=c1c2c([N+](=O)[O-])cc([N+](=O)[O-])cc2sn1Cc1ccccc1`, the EC50 is 6.62 µM.

`CCOC(=O)c1ccc(-n2c(O)c(/C=N/NC(=O)C3COc4ccccc4O3)c3ccccc3c2=O)cc1` (centres undefined): the EC50 was 1.55 µM.

For the compound `Cc1cc(C)nc(SCC(=O)NC2=NN=C(c3ccc(Br)cc3)CS2)n1`, the EC50 is 3.07 µM.

`Clc1ccc(-c2n[nH]c3c2CCC3)c(Cl)c1`: the concentration giving a half-maximal response (EC50) was 0.975 µM.

Turning to `CSCc1nnc(NC(=O)c2ccc(S(=O)(=O)N(CC(C)C)CC(C)C)cc2)o1`, the EC50 was 0.724 µM.

In the case of `COc1ccc(NC(=O)CN(C)C(=O)/C=C/c2cn(-c3ccccc3)nc2-c2ccc(C)cc2)cc1`, the EC50 is 8.68 µM.

For `COc1ccc(/C=C/C(=O)NC(=S)NNC(=O)c2cc(OC)c(OC)c(OC)c2)cc1OC`, the EC50 is 1.48 µM.

Regarding `O=[N+]([O-])c1cc(C(F)(F)F)ccc1NCCNC(=S)Nc1ccc(Cl)cc1`, the EC50 is 4.79 µM.

`O=c1cc(/N=C/c2coc3c(ccc4ccccc43)c2=O)[nH]c(=S)[nH]1`: the EC50 was 1.53 µM.

With `CCOC(=O)c1c(C)[nH]c(C(=O)N/N=C/c2cc([N+](=O)[O-])ccc2O)c1C`, the EC50 is 4.39 µM.

Consider `Fc1ccc(Cn2cccc2C2=NC(c3ccccc3)CO2)cc1` (centres undefined), for which the EC50 is 7.34 µM.

Turning to `Oc1ccc(Oc2ccc(Oc3ccc(O)cc3)cc2)cc1`, the EC50 is 5.25 µM.

For `CCCCC/C=C\C/C=C\C/C=C\C/C=C\CCCC(=O)Nc1ccc(O)cc1`, the EC50 is 1.2 µM.

On to `CCOc1ccc(-c2nc3n(c(=O)c2C#N)CCCS3)cc1`, for which the EC50 is 7.33 µM.

As to `O=C(Oc1c(Cl)cc(Cl)c2cccnc12)c1cccs1`, the EC50 was 1.08 µM.

Turning to `Cc1cccc(/C=C/C(=O)c2cc(Br)ccc(=O)c2O)c1`, the EC50 was 0.818 µM.

In the case of `O=C(NCc1ccccn1)C(=O)Nc1nc(C23CC4CC(CC(C4)C2)C3)cs1`, the EC50 was 1.65 µM.

For `CCOC(=O)C1CCN(C2=C(NS(=O)(=O)c3ccc(Cl)cc3)C(=O)c3ccccc3C2=O)CC1`, the EC50 is 7.15 µM.

As to `C/C(=N/NC(=O)c1cc2ccccc2cc1O)C1C(=O)c2ccccc2C1=O`, the EC50 is 1.57 µM.

Turning to `COc1cc(C)c(C(=O)CC(=O)c2c(C)cc(OC)cc2C)c(C)c1`, the EC50 is 1.61 µM.

For the compound `CCc1cc2c(COC(=O)c3cccc(NS(C)(=O)=O)c3)cc(=O)oc2cc1O`, the EC50 is 7.84 µM.

On to `C=C1SC(=Nc2ccccc2Cl)N(C(=O)c2sc3ccccc3c2Cl)C12CCCCC2`, for which the 50% effective concentration (EC50) was 3.48 µM.

Consider `Cc1[nH]n(-c2ncc(-c3ccccc3)s2)c(=O)c1C(c1ccc(Br)cc1)C(C#N)C#N` (centres undefined), for which the EC50 was 5.83 µM.

`Cc1ccc(O)c(C2=NNC(c3ccc(Cl)cc3)C2)c1` (centres undefined): the EC50 is 7.44 µM.

Turning to `O=C(Nc1ccc([N+](=O)[O-])cc1)Nc1nc(-c2ccc(Cl)s2)cs1`, the EC50 is 2.95 µM.

Take `O=C(Nc1cccc(-c2csc(Nc3ccc(Cl)cc3)n2)c1)c1ccccc1`: the EC50 is 4.45 µM.

Turning to `COC(=O)c1c(NC(=O)c2ccn(C)n2)sc2c1CCC2`, the EC50 is > 15 µM (inactive).

For the compound `Cc1ccc(C(C)C)c(OCc2ccc(C(=O)N/N=C/c3cccc(O)c3O)cc2)c1`, the EC50 was 5.66 µM.

For the compound `CC(C)=CCc1cc([C@@H]2CC(=O)c3ccc(O)c(CC=C(C)C)c3O2)ccc1O`, the EC50 was 3.63 µM.

In the case of `N=C1S/C(=C\c2ccc(-c3cccc(Cl)c3)o2)C(=O)N1c1nccs1`, the EC50 was under 0.06 µM.

For the compound `O=C(O)c1ccc(N/N=C/c2ccc(-c3cccc(Cl)c3)o2)cc1`, the EC50 was 6.17 µM.

In the case of `c1ccc(Oc2nc(-c3ccccn3)nc3ccccc23)cc1`, the EC50 is 9.41 µM.

As for `O=C(Nc1nnc(-c2ccco2)o1)c1ccc(Cl)s1`, the EC50 was 1.71 µM.

Regarding `CSc1ccc(S(=O)(=O)NCC(=O)OCC(=O)N2CCCC2=O)cc1[N+](=O)[O-]`, the EC50 was 9.29 µM.

For the compound `Cc1cccc(/C=c2\s/c(=C\C(=O)C(C)(C)C)[nH]c2=O)c1`, the EC50 was 2.34 µM.

As for `CCCCCCCCCC[N+](C)(C)CC/C=C1/c2ccccc2Sc2ccc(Cl)cc21`, the EC50 is 2.31 µM.

With `CCn1cc(Cl)c(C(=O)N2N=C(c3ccc4ccccc4c3)CC2c2ccccc2O)n1` (centres undefined), the EC50 is 6.13 µM.

For the compound `C[C@@H]1CC[C@@]2(OC1)O[C@H]1C[C@H]3[C@@H]4CC=C5C[C@@H](O)[C@H](O)C[C@]5(C)C4CC[C@]3(C)[C@H]1[C@@H]2C` (some centres undefined), the EC50 was 4.12 µM.

With `CC(C)c1ccc(-c2cc(C(=O)N3N=C(C(F)F)CC3(O)C(F)F)c3ccccc3n2)cc1` (centres undefined), the EC50 was 3.11 µM.

`CN(Cc1ccc(OC(F)F)cc1)Cc1nc2c(Br)cc(Br)cc2c(=O)[nH]1`: the EC50 is 2.98 µM.

`COc1ccc(-c2oc3cccnc3c2C#CC2(O)CCCCC2)cc1`: the EC50 was 7.36 µM.

In the case of `O=C(NNC(=O)c1cc(-c2ccc(Cl)c(Cl)c2)nc2ccccc12)Nc1ccccc1`, the EC50 was 4.83 µM.

As to `COc1ccc2ccc3c(c2c1)N=C[C@]1(O3)N(C)c2ccccc2C1(C)C`, the EC50 is 1.41 µM.

For the compound `COCCCNC(=S)NNC(=S)Nc1cccc(Cl)c1`, the EC50 was > 15 µM (inactive).

Consider `CC(C)C(=O)Nc1ccc(C(=O)NNC(=S)NC(=O)c2cccs2)cc1`, for which the EC50 was 6.57 µM.

For `CC1=NN(C(N)=S)C(=O)C1N=Nc1c(C)cc(C)cc1C` (centres undefined), the EC50 is 5.77 µM.

Consider `Cc1ccc(C[n+]2c(-c3ccc(C)cc3)cc(-c3ccc(C)cc3)cc2-c2ccc(C)cc2)cc1`, for which the EC50 was 4.06 µM.

Regarding `NC(=O)NC(=O)CSc1nc2cc([N+](=O)[O-])ccc2n1-c1cccc(C(F)(F)F)c1`, the EC50 is 0.256 µM.

Turning to `CC(=O)OCC1=C(C(=O)O)N2C(=O)C(NC(=O)Cn3nc(C(F)F)c(Cl)c3C)C2SC1` (centres undefined), the EC50 is under 0.06 µM.

Take `CCOc1cc(/C=C(\C#N)c2nc(-c3cccs3)c(NC(C)=O)s2)ccc1O`: the EC50 is 0.385 µM.

Take `Cc1nn(-c2ccccc2)c(C)c1/C=N/n1c(-c2ccc(C(C)(C)C)cc2)n[nH]c1=S`: the EC50 is 2.62 µM.

With `CCNc1nc(Oc2c(Cl)cccc2Cl)cc(C(F)(F)F)n1`, the EC50 is 6.58 µM.

Take `CC(C)Cn1c(=O)c(C(=O)Nc2ccncc2)c(O)c2ccccc21`: the half-maximal effective concentration (EC50) is 4.17 µM.

Regarding `Cc1cc2occ(CC(=O)NC3=NCCS3)c2cc1C(C)C`, the EC50 was 4.35 µM.

`O=C1NC(=S)/C(=C\c2ccc(-c3ccccc3Cl)o2)S1`: the EC50 is 2.94 µM.

For `O=C(O)c1ccccc1N/N=C/c1cc(Br)cc(Br)c1O`, the EC50 is 7.96 µM.

On to `Cc1cc(NC(=O)c2sccc2C)n(-c2nc3ccccc3[nH]2)n1`, for which the EC50 was 2.81 µM.

Take `COc1cc(Cc2cc(N)nc(N)n2)cc(OC)c1OC`: the EC50 was 4.31 µM.

With `Cc1cc(C)c(COc2ccc(/C=N/n3c(C)n[nH]c3=S)cc2)c(C)c1`, the EC50 is 5.33 µM.

Regarding `Nc1nc(N)c2cc(Sc3ccc4ccccc4c3)ccc2n1`, the EC50 was 0.115 µM.
